# Measured values: PMC10492782, “Exploiting the aggregation propensity of beta-lactamases to design inhibitors that induce enzyme misfolding” (Nature Communications, 2023)
# Assays:
# E. coli SHV11 = assay: Checkerboard assay (FICI); type: cell-based, Escherichia coli; settings: strain containing SHV-11, FICI below 0.5 = synergy
# Protocol: To quantify the synergy between these four peptides and penicillin G, we performed a so-called checkerboard assay, which allows us to compare the activity of two test compounds co-incubated (here peptide and a beta-lactam antibiotic), to their individual activities in isolation. […] We evaluated the synergy of the peptides with penicillin G in clinical E. coli isolates carrying the TEM (Fig. 3D) or SHV enzymes (Fig. 3E). […] The list of strains included some that harbored only TEM or SHV, but others contained additional Ambler Class A (CTX-M or OXA) or Class B (VIM and NDM) beta-lactamases.
# For the analysis of synergy between the peptides and other antibiotics, a checkerboard assay was performed. Based on the MICs of the selected peptides, a checkerboard assay was designed to define their FICIs (Fractional Inhibitory Concentration Index) in combinations against different clinical isolates[53],[54]. Briefly, a total volume of 100 μL of Mueller–Hinton broth was distributed into each well of the 96-well plates. […] FICI is calculated as the sum of the individual fractional inhibitory concentrations (FICs) for each drug (where MIC A and MIC B denote the MIC of each drug alone, and MIC AA+B and MIC BA+B denote the concentrations of A and B in the drug combination). […]
# [1] = pFTAA fluorescence of peptide aggregates; type: physicochemical; settings: 50 μM peptide, PolyP condition
# Protocol: Fig. 4 Aggregation kinetics of TEM and SHV proteins and peptides. A Measurements of the hydrodynamic radius by Dynamic Light Scattering of 50 μM TEM3.2 in buffer alone, or in the presence of LPS or polyphosphate (PolyP). […] C Transmission Electron Micrograph of 50 μM TEM 3.2 incubated for 24 h in the same buffer as A with polyP, negatively stained with 2% (w/v) uranyl acetate. A single representative image is shown. […] Three replicates are shown for each condition. E Aggregation kinetics using pFTAA fluorescence emission of recombinantly purified TEM-1, in the presence of vehicle, or TEM 3.2 peptin, as well as peptin-only control. F Similar as in E, but using an off-target Pept-In, based on an APR sequence of beta-galactosidase. G Similar to E, but now using a previously published off-target Pept-In, based on an APR of HcaB. The plots are the results of a single experiment, all replicates are shown. Source data are provided as a Source Data file.
# HEK293 = settings: 24 h, 400 to 6.25 µg/mL
# Protocol: (§1) The Cell Titer Blue assay was performed to evaluate the cell viability according to the instructions of the manufacturer (Promega, USA). The peptide treatments were done in DMEM medium without serum. Briefly, cells were seeded to approximately 20,000 mammalian cells per well in a 96-well flat-bottom plate (BD Biosciences 353075) and incubated at 37 °C with 5% CO2 and 90% humidity. Peptides were diluted in cell medium, and cells were treated for 24 h. 20 μL of the CellTiter Blue reagent was added to each well and the plate was incubated for 1 h at 37 °C. The fluorescence was measured at 590 nm by exciting at 560 nm with a ClarioStar plate reader (BMG Labtech, Germany).
# (§2) Khodaparast et al Supplementary data
# (§3) Supplementary Figure 12: Cell viability assays on mammalian cells using the CellTiter Blue assay, plotted as relative values compared to vehicle. The colours of the bars show the concentrations indicated in the legends in µg/mL, ranging from 400 to 6.25 µg/mL. The dots indicate individual measurements on independent wells of cells (4 repeats), the bars
# HT-1376 = settings: 24 h, 400 to 6.25 µg/mL
# Protocol: as §1, §2, §3
# NCI-H441 = settings: 24 h, 400 to 12.5 µg/mL
# Protocol: as §1, §2, §3
# SH-SY5Y = settings: 24 h, 400 to 6.25 µg/mL
# Protocol: as §1, §2, §3
# [2] = tested on: primary mouse cortical neurons; settings: 24 h, 400 to 6.25 µg/mL
# Protocol: as §1, §2, §3
# [3] = Hematologic analysis after repeated dosing; settings: daily IV injections, 5 mg/kg
substance,measurement,setting,value
Ac-RLTAFLHNRRPRLTAFLRQRR-NH2 [TEM3.2],synergy with penicillin G (in words),E. coli SHV11,showed synergy in both strains
same,pFTAA staining of fibrils (in words),[1],stain positive for pentameric formyl thiophene acetic acid (pFTAA)
same,"cytotoxicity, Cell Titer Blue (in words)",HEK293,not cytotoxic
same,"cytotoxicity, Cell Titer Blue (in words)",HT-1376,not cytotoxic
same,"cytotoxicity, Cell Titer Blue (in words)",NCI-H441,not cytotoxic
same,"cytotoxicity, Cell Titer Blue (in words)",SH-SY5Y,not cytotoxic
same,"cytotoxicity, Cell Titer Blue (in words)",[2],not cytotoxic
same,hematologic analysis (in words),[3],no major discrepancies to vehicle-treated controls
